Source: ChEMBL document CHEMBL1201862, “PubChem BioAssay data set” (2004)
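96-well plates; 48 h exposure; 5 concentrations. Endpoints by linear interpolation between flanking doses. Not reached: highest tested concentration assigned. GI50: concentration for 50% inhibition of growth.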 Active and inactive are the calls of the source. No stated cut-off is given here; in the data, active = GI50 up to about 1.1 µM and inactive = higher.

Assays:
Experiment in all cases: growth of human tumour cells (NCI), 48 h
NCI-H522 = tested on: NCI-H522
SR = tested on: SR
OVCAR-8 = tested on: OVCAR-8
K562 = tested on: K562
SNB-75 = tested on: SNB-75
PC-3 = tested on: PC-3
M14 = tested on: M14
UACC-257 = tested on: UACC-257
NCI/ADR-RES = tested on: NCI/ADR-RES
SK-OV-3 = tested on: SK-OV-3
HOP-92 = tested on: HOP-92
Malme-3M = tested on: Malme-3M
EKVX = tested on: EKVX
MDA-N = tested on: MDA-N
OVCAR-4 = tested on: OVCAR-4
UO-31 = tested on: UO-31
COLO 205 = tested on: COLO 205
HL-60 = tested on: HL-60
A498 = tested on: A498

Measured: GI50

CC1CCc2sc3nc4n(c(=O)c3c2C1)CC(C)S4 (stereo not drawn)
inactive: NCI-H522 30.9 µM | SR 26.2 µM | OVCAR-8 32.2 µM | K562 24.7 µM | SNB-75 21.5 µM | PC-3 22.5 µM | M14 25.4 µM | UACC-257 20.2 µM | NCI/ADR-RES 30.8 µM | SK-OV-3 29.7 µM | HOP-92 26.1 µM | Malme-3M 25.7 µM | EKVX 15.1 µM | MDA-N 28.4 µM | OVCAR-4 25.5 µM | UO-31 2.77 µM | COLO 205 18 µM

CCOC(=O)[C@@H](Cc1ccc(CCl)cc1)NC(C)=O
inactive: NCI-H522 17.6 µM | SR 29.4 µM | OVCAR-8 50.8 µM | K562 34.4 µM | SNB-75 26.6 µM | PC-3 29 µM | M14 24.8 µM | UACC-257 17.2 µM | NCI/ADR-RES 19.9 µM | SK-OV-3 98.2 µM | HOP-92 23.4 µM | Malme-3M 19.2 µM | EKVX 22.2 µM | MDA-N 19 µM | OVCAR-4 19.9 µM | HL-60 27 µM | UO-31 19.2 µM | COLO 205 18.1 µM

Cc1ccc(C(=O)N/N=C(\N=N\c2ccccc2[N+](=O)[O-])c2ccc(N(C)C)cc2)cc1
inactive: NCI-H522 > 100 µM | SR 33.7 µM | OVCAR-8 > 100 µM | K562 > 100 µM | PC-3 > 100 µM | M14 > 100 µM | UACC-257 > 100 µM | NCI/ADR-RES > 100 µM | SK-OV-3 > 100 µM | HOP-92 > 100 µM | EKVX > 100 µM | MDA-N > 100 µM | OVCAR-4 > 100 µM | HL-60 84.9 µM | UO-31 89.1 µM | COLO 205 > 100 µM

O=C1/C(=C\c2c(-c3ccccc3)[nH]n(-c3ccccc3)c2=O)C(c2ccccc2)=NN1c1ccccc1
inactive: SR 20 µM | OVCAR-8 > 100 µM | K562 87.5 µM | A498 > 100 µM | SNB-75 > 100 µM | PC-3 > 100 µM | M14 > 100 µM | UACC-257 > 100 µM | NCI/ADR-RES > 100 µM | SK-OV-3 > 100 µM | HOP-92 81.3 µM | Malme-3M > 100 µM | EKVX > 100 µM | MDA-N > 100 µM | OVCAR-4 > 100 µM | HL-60 > 100 µM | UO-31 > 100 µM | COLO 205 > 100 µM

C=C1C(=O)[C@@]23CC[C@@H]4[C@@]5(C)CCC[C@@]4(OC5=O)C2(C)CC[C@]1(OC)C3 (stereo partly drawn)
inactive: SNB-75 1.24 µM | M14 1.72 µM | UACC-257 1.51 µM | NCI/ADR-RES 1.45 µM | EKVX 9.18 µM | UO-31 1.79 µM | COLO 205 2.38 µM
active: NCI-H522 0.406 µM | SR 0.23 µM | OVCAR-8 0.611 µM | K562 0.0993 µM | PC-3 1.05 µM | MDA-N 0.52 µM

O=C(c1ccccc1)C1N=NCC1c1ccc([N+](=O)[O-])cc1 (stereo not drawn)
inactive: SR 27.9 µM | OVCAR-8 42.8 µM | K562 32.5 µM | A498 39 µM | SNB-75 16.7 µM | PC-3 54.8 µM | M14 48.9 µM | UACC-257 27 µM | NCI/ADR-RES 39.3 µM | SK-OV-3 > 100 µM | HOP-92 23.1 µM | Malme-3M 51.4 µM | EKVX 89.1 µM | MDA-N 29.6 µM | OVCAR-4 49.2 µM | HL-60 23.1 µM | UO-31 30.1 µM | COLO 205 39.4 µM

NC(=O)C(=CNC(=S)c1ccncc1)C(N)=O
inactive: NCI-H522 > 100 µM | SR > 100 µM | OVCAR-8 > 100 µM | K562 > 100 µM | PC-3 > 100 µM | M14 > 100 µM | UACC-257 > 100 µM | NCI/ADR-RES > 100 µM | SK-OV-3 > 100 µM | HOP-92 > 100 µM | EKVX > 100 µM | MDA-N > 100 µM | OVCAR-4 > 100 µM | HL-60 > 100 µM | UO-31 > 100 µM | COLO 205 > 100 µM

O=C(c1ccccc1)c1ccc(N2C(=O)/C(=C/c3cccc([N+](=O)[O-])c3)N=C2c2ccccc2)c(N2C(=O)/C(=C/c3cccc([N+](=O)[O-])c3)N=C2c2ccccc2)c1
inactive: SR 23.4 µM | OVCAR-8 42.5 µM | K562 31.7 µM | A498 19.3 µM | SNB-75 15.1 µM | PC-3 27.3 µM | M14 14.4 µM | UACC-257 36.2 µM | NCI/ADR-RES 25.1 µM | SK-OV-3 > 100 µM | HOP-92 82.2 µM | EKVX > 100 µM | MDA-N 21.7 µM | OVCAR-4 34.6 µM | UO-31 66.7 µM | COLO 205 2.77 µM
active: HL-60 0.759 µM

CCC(CCCN)Nc1cc(OC)cc2cccnc12 (stereo not drawn)
inactive: SR 79.6 µM | OVCAR-8 > 100 µM | K562 57 µM | A498 > 100 µM | SNB-75 31.1 µM | PC-3 > 100 µM | M14 41.3 µM | UACC-257 15.5 µM | NCI/ADR-RES > 100 µM | SK-OV-3 > 100 µM | HOP-92 > 100 µM | Malme-3M 38.7 µM | EKVX > 100 µM | MDA-N > 100 µM | OVCAR-4 90.2 µM | HL-60 21.9 µM | UO-31 70 µM | COLO 205 33.6 µM

CCOc1ccc(/N=N/C2C(=O)N(C(=O)CC(=O)Nc3ccccc3OC)N=C2C)cc1 (stereo not drawn)
active: SNB-75 0.916 µM
inactive: NCI-H522 11 µM | OVCAR-8 59.8 µM | K562 13.2 µM | A498 > 30.1 µM | PC-3 > 100 µM | M14 25.5 µM | UACC-257 > 74.3 µM | NCI/ADR-RES 30 µM | SK-OV-3 > 37.2 µM | HOP-92 > 32.4 µM | Malme-3M 21.1 µM | MDA-N 2.52 µM | OVCAR-4 > 19.7 µM | HL-60 4.17 µM | UO-31 > 71.1 µM | COLO 205 > 100 µM

COc1cc(NS(C)(=O)=O)ccc1Nc1cc(C)nc2ccc3[nH]ccc3c12
inactive: NCI-H522 8.69 µM | OVCAR-8 > 100 µM | K562 > 100 µM | A498 > 100 µM | PC-3 > 100 µM | M14 > 100 µM | UACC-257 > 100 µM | NCI/ADR-RES > 100 µM | HOP-92 > 100 µM | EKVX > 100 µM | MDA-N > 100 µM | OVCAR-4 > 100 µM | HL-60 > 100 µM | UO-31 > 100 µM | COLO 205 > 100 µM

COC(=O)C1=C(O)C(C(=O)OC)[C@]2(O)[C@H](C(=O)OC)[C@H]1C[C@@H](c1ccc(F)cc1)[C@H]2C(=O)OC (stereo partly drawn)
inactive: SR 10.9 µM | OVCAR-8 20.9 µM | K562 9.23 µM | A498 16.8 µM | SNB-75 18.1 µM | PC-3 12.2 µM | M14 10.4 µM | UACC-257 11.9 µM | NCI/ADR-RES 4.98 µM | SK-OV-3 22.6 µM | HOP-92 27.3 µM | Malme-3M 12.9 µM | EKVX 17.3 µM | MDA-N 3.87 µM | OVCAR-4 22.4 µM | HL-60 2.92 µM | UO-31 14.1 µM | COLO 205 14.7 µM

Cc1[nH]c2[nH]c(=S)nc(NC(N)=S)c2c1Cc1ccccc1
inactive: SR 11.5 µM | OVCAR-8 51.9 µM | K562 25.9 µM | A498 > 100 µM | SNB-75 31.9 µM | PC-3 47 µM | M14 42.3 µM | UACC-257 54.3 µM | NCI/ADR-RES 48.8 µM | SK-OV-3 76 µM | HOP-92 > 100 µM | EKVX 48.4 µM | MDA-N 22.7 µM | HL-60 13.6 µM | UO-31 22.8 µM | COLO 205 15.1 µM

CCC(C)(C)c1ccc(Oc2cccc(C(=O)O)c2)cc1
inactive: NCI-H522 28.2 µM | OVCAR-8 69.7 µM | K562 32.6 µM | A498 53.8 µM | SNB-75 37.9 µM | PC-3 55 µM | M14 52.8 µM | UACC-257 > 100 µM | NCI/ADR-RES 50.1 µM | SK-OV-3 72.1 µM | Malme-3M 44.6 µM | EKVX 40.4 µM | MDA-N 47.6 µM | OVCAR-4 44.3 µM | HL-60 40.1 µM | UO-31 48.1 µM | COLO 205 38.8 µM

COc1cc(C2=C(C)[C@@H]3CN(CC=C3c3ccc(Cl)cc3)C2)c(S(=O)(=O)O)cc1OC
inactive: NCI-H522 > 100 µM | SR > 100 µM | OVCAR-8 > 100 µM | K562 > 100 µM | SNB-75 > 100 µM | PC-3 > 100 µM | M14 > 100 µM | UACC-257 > 100 µM | NCI/ADR-RES > 100 µM | SK-OV-3 > 100 µM | HOP-92 > 100 µM | Malme-3M > 100 µM | EKVX > 100 µM | MDA-N > 100 µM | OVCAR-4 > 100 µM | UO-31 > 100 µM | COLO 205 > 100 µM

Cc1cc2nc(N3C(=O)/C(=C/c4ccc(Cl)cc4)N=C3c3ccccc3)sc2cc1C
inactive: SR 46.5 µM | OVCAR-8 28.4 µM | K562 32.4 µM | A498 32.9 µM | SNB-75 22.3 µM | PC-3 26.5 µM | M14 32.7 µM | UACC-257 28.4 µM | NCI/ADR-RES 23.2 µM | SK-OV-3 46.2 µM | HOP-92 8.55 µM | EKVX 24.4 µM | MDA-N 12.5 µM | OVCAR-4 20 µM | HL-60 21.6 µM | UO-31 26.8 µM | COLO 205 16.1 µM
